Results as given in patent publication US12391737B2, “Soluble NPY2 receptor agonists” (Boehringer Ingelheim International GmbH, priority 2020, dated 2025).
*1 amine or outer side, *2 acyl side, *3 side chain or, on linkers, in order; H or OH if unused. Where a SMILES comes first, the peptide text is derived from it. Side-chain parts run from the residue outwards. The star is where a group is joined. C18 diacid = O=C(O)CCCCCCCCCCCCCCCCC(=O)*; γGlu = O=C(O)[C@H](CCC(=O)[*:2])N[*:1]; Isovaleryl = CC(C)CC(=O)*; Ahx = NCCCCCC(=O)O

Experiments:
[1] = biological target: T1, Human Neuropeptide Y2 Receptor (Homo sapiens, UniProt P49146); assay: Radioligand binding competition assay (RLB); settings: Table 3, 125I-PYY(1-36) competition; read-out: Ki
T1 construct: purchased CHEMICON HTS066M
T1 sequence (P49146 1-381): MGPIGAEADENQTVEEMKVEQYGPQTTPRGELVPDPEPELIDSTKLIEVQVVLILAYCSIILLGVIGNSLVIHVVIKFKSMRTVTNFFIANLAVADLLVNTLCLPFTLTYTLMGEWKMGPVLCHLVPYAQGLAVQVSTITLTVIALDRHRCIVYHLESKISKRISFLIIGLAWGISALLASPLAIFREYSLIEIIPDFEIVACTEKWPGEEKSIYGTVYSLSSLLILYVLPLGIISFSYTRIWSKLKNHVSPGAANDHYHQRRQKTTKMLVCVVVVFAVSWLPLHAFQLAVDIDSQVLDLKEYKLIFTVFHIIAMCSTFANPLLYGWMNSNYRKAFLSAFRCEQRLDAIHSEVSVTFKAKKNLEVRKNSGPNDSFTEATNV
Method in brief: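 Displacement of radioligand is measured after 2 h at room temperature with receptor membranes in Mg2+/Ca2+ HEPES buffer, pH 7.4. Filter-bound radioactivity is counted and IC50 obtained from curve fitting.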

Solubility determination = settings: for Sol6: pH 6; for Sol7: pH 7
Method in brief: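 Sample: TFA-salt peptide at 10 mg/ml target in 0.1 M Na diphosphate, pH 6.4 or 7.0, shaken 2 h RT, filtered, diluted to 1 mg/ml.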

Ki [1]	Sol6 (Solubility determination)	Sol7 (Solubility determination)	Compound
4.42 nM	9.6 mg/mL	8.8 mg/mL	CC(C)CC(=O)N[C@@H](C)C(=O)N1CCC[C@H]1C(=O)N[C@@H](CCC(=O)O)C(=O)N[C@@H](CCCCNC(=O)CCCCCNC(=O)CC[C@H](NC(=O)CCCCCCCCCCCCCCCCC(=O)O)C(=O)O)C(=O)N1CCC[C@H]1C(=O)N[C@@H](CCC(=O)O)C(=O)N[C@@H](CCC(=O)O)C(=O)N[C@@H](CC(=O)O)C(=O)N[C@@H](C)C(=O)N[C@@H](CCC(=O)O)C(=O)N1CCC[C@H]1C(=O)N[C@@H](CCC(=O)O)C(=O)N[C@@H](CCC(=O)O)C(=O)N[C@@H](CC(C)C)C(=O)N[C@@H](CCC(N)=O)C(=O)N[C@@H](CCCNC(=N)N)C(=O)N[C@@H](Cc1ccc(O)cc1)C(=O)N[C@@H](Cc1ccc(O)cc1)C(=O)N[C@H](C(=O)N[C@@H](CO)C(=O)N[C@@H](CC(C)C)C(=O)N[C@@H](CCCNC(=N)N)C(=O)N[C@@H](Cc1c[nH]cn1)C(=O)N[C@@H](Cc1ccc(O)cc1)C(=O)N[C@@H](Cc1ccc(O)cc1)C(=O)N[C@@H](CC(N)=O)C(=O)N[C@@H](Cc1c[nH]c2ccccc12)C(=O)N[C@@H](CC(C)C)C(=O)N[C@H](C(=O)N[C@@H](CCCNC(=N)N)C(=O)N[C@@H](CCC(N)=O)C(=O)N[C@@H](CCCNC(=N)N)C(=O)N[C@@H](Cc1ccc(O)cc1)C(N)=O)[C@@H](C)O)C(C)C [Compound 126, N{alpha-4}-(3-methylbutanoyl)-N{epsilon-7}-(6-[(4S)-4-carboxy-4-(17-carboxyheptadecanamido)butanamido]hexanoyl)-[4A,7K,9E,13E,18Q,22V,28Y,30W,31L]-hPYY(4-36)]
19.8 nM	9.8 mg/mL	10.0 mg/mL	CC(C)CC(=O)N[C@@H](C)C(=O)N1CCC[C@H]1C(=O)N[C@@H](CCC(=O)O)C(=O)N[C@@H](CCCCNC(=O)CCCCCNC(=O)CC[C@H](NC(=O)CCCCCCCCCCCCCCCCC(=O)O)C(=O)O)C(=O)N1CCC[C@H]1C(=O)N[C@@H](CCC(=O)O)C(=O)N[C@@H](CCC(=O)O)C(=O)N[C@@H](CC(=O)O)C(=O)N[C@@H](C)C(=O)N[C@@H](CCC(=O)O)C(=O)N1CCC[C@H]1C(=O)N[C@@H](CCC(=O)O)C(=O)N[C@@H](CCC(=O)O)C(=O)N[C@@H](CC(C)C)C(=O)N[C@@H](CCC(N)=O)C(=O)N[C@@H](CCCNC(=N)N)C(=O)N[C@@H](Cc1ccc(O)cc1)C(=O)N[C@@H](Cc1ccc(O)cc1)C(=O)N[C@H](C(=O)N[C@@H](CO)C(=O)N[C@@H](CC(C)C)C(=O)N[C@@H](CCCNC(=N)N)C(=O)N[C@@H](Cc1c[nH]cn1)C(=O)N[C@@H](Cc1ccc(O)cc1)C(=O)N[C@@H](Cc1ccc(O)cc1)C(=O)N[C@@H](CCC(N)=O)C(=O)N[C@@H](Cc1c[nH]c2ccccc12)C(=O)N[C@@H](CC(C)C)C(=O)N[C@H](C(=O)N[C@@H](CCCNC(=N)N)C(=O)N[C@@H](CCC(N)=O)C(=O)N[C@@H](CCCNC(=N)N)C(=O)N[C@@H](Cc1ccc(O)cc1)C(N)=O)[C@@H](C)O)[C@@H](C)O [Compound 41, N{alpha-4}-(3-methylbutanoyl)-N{epsilon-7}-(6-[(4S)-4-carboxy-4-(17-carboxyheptadecanamido)butanamido]hexanoyl)[4A,7K,9E,13E,18Q,22T,28Y,30W,31L]-hPYY(4-36)] (Isovaleryl-APEK([Ahx-γGlu-C18 diacid])PEEDAEPEELQRYYTSLRHYYQWLTRQRY-NH2)
8.97 nM	10.0 mg/mL	10.0 mg/mL	CC(C)CC(=O)N[C@@H](C)C(=O)N1CCC[C@H]1C(=O)N[C@@H](CCC(=O)O)C(=O)N[C@@H](CCCCNC(=O)CCCCCNC(=O)CC[C@H](NC(=O)CCCCCCCCCCCCCCCCC(=O)O)C(=O)O)C(=O)N1CCC[C@H]1C(=O)N[C@@H](CCC(=O)O)C(=O)N[C@@H](CCC(=O)O)C(=O)N[C@@H](CC(=O)O)C(=O)N[C@@H](C)C(=O)N[C@H](C(=O)N1CCC[C@H]1C(=O)N[C@@H](CCC(=O)O)C(=O)N[C@@H](CCC(=O)O)C(=O)N[C@@H](C)C(=O)N[C@@H](CCC(N)=O)C(=O)N[C@@H](CCCNC(=N)N)C(=O)N[C@@H](Cc1ccc(O)cc1)C(=O)N[C@@H](Cc1ccc(O)cc1)C(=O)N[C@H](C(=O)N[C@@H](CO)C(=O)N[C@@H](CC(C)C)C(=O)N[C@@H](CCCNC(=N)N)C(=O)N[C@@H](Cc1c[nH]cn1)C(=O)N[C@@H](Cc1ccc(O)cc1)C(=O)N[C@@H](Cc1ccc(O)cc1)C(=O)N[C@@H](CC(N)=O)C(=O)N[C@@H](Cc1c[nH]c2ccccc12)C(=O)N[C@@H](CC(C)C)C(=O)N[C@H](C(=O)N[C@@H](CCCNC(=N)N)C(=O)N[C@@H](CCC(N)=O)C(=O)N[C@@H](CCCNC(=N)N)C(=O)N[C@@H](Cc1ccc(O)cc1)C(N)=O)[C@@H](C)O)C(C)C)[C@@H](C)O [Compound 54, N{alpha-4}-(3-methylbutanoyl)-N{epsilon-7}-(6-[(4S)-4-carboxy-4-(17-carboxyheptadecanamido)butanamido]hexanoyl)-[4A,7K,9E,13T,17A,18Q,22V,28Y,30W,31L]-hPYY(4-36)]

The next lines start with the molecule.

Compound	Ki [1]	Sol6 (Solubility determination)	Sol7 (Solubility determination)
CC(C)CC(=O)N[C@@H](C)C(=O)N1CCC[C@H]1C(=O)N[C@@H](CCC(=O)O)C(=O)N[C@@H](CCCCNC(=O)CCCCCNC(=O)CC[C@H](NC(=O)CCCCCCCCCCCCCCCCC(=O)O)C(=O)O)C(=O)N1CCC[C@H]1C(=O)N[C@@H](CCC(=O)O)C(=O)N[C@@H](CCC(=O)O)C(=O)N[C@@H](C)C(=O)N[C@@H](C)C(=O)N[C@@H](CO)C(=O)N1CCC[C@H]1C(=O)N[C@@H](CCC(=O)O)C(=O)N[C@@H](CCC(=O)O)C(=O)N[C@@H](CC(C)C)C(=O)N[C@@H](CCC(N)=O)C(=O)N[C@@H](CCCNC(=N)N)C(=O)N[C@@H](Cc1ccc(O)cc1)C(=O)N[C@@H](Cc1ccc(O)cc1)C(=O)N[C@H](C(=O)N[C@@H](C)C(=O)N[C@@H](CC(C)C)C(=O)N[C@@H](CCCNC(=N)N)C(=O)N[C@@H](Cc1c[nH]cn1)C(=O)N[C@@H](Cc1ccc(O)cc1)C(=O)N[C@@H](Cc1ccc(O)cc1)C(=O)N[C@@H](CC(N)=O)C(=O)N[C@@H](Cc1c[nH]c2ccccc12)C(=O)N[C@@H](CC(C)C)C(=O)N[C@H](C(=O)N[C@@H](CCCNC(=N)N)C(=O)N[C@@H](CCC(N)=O)C(=O)N[C@@H](CCCNC(=N)N)C(=O)N[C@@H](Cc1ccc(O)cc1)C(N)=O)[C@@H](C)O)C(C)C [Compound 73, N{alpha-4}-(3-methylbutanoyl)-N{epsilon-7}-(6-[(4S)-4-carboxy-4-(17-carboxyheptadecanamido)butanamido]hexanoyl)-[4A,7K,9E,11A,18Q,22V,23A,28Y,30W,31L]-hPYY(4-36)]	2.16 nM	8.6 mg/mL	8.2 mg/mL
CC[C@H](C)[C@H](NC(=O)[C@H](CCC(=O)O)NC(=O)[C@H](CCC(=O)O)NC(=O)[C@@H]1CCCN1C(=O)[C@H](CCC(=O)O)NC(=O)[C@H](C)NC(=O)[C@H](CC(=O)O)NC(=O)[C@H](C)NC(=O)[C@H](CCC(=O)O)NC(=O)[C@@H]1CCCN1C(=O)[C@H](CCCCNC(=O)CCCCCNC(=O)CC[C@H](NC(=O)CCCCCCCCCCCCCCCCC(=O)O)C(=O)O)NC(=O)[C@H](C)NC(=O)[C@@H]1CCCN1C(=O)[C@H](C)NC(=O)CC(C)C)C(=O)N[C@@H](CCC(N)=O)C(=O)N[C@@H](CCCNC(=N)N)C(=O)N[C@@H](Cc1ccc(O)cc1)C(=O)N[C@@H](Cc1ccc(O)cc1)C(=O)N[C@H](C(=O)N[C@@H](CO)C(=O)N[C@@H](CC(C)C)C(=O)N[C@@H](CCCNC(=N)N)C(=O)N[C@@H](Cc1c[nH]cn1)C(=O)N[C@@H](Cc1ccc(O)cc1)C(=O)N[C@@H](Cc1ccc(O)cc1)C(=O)N[C@@H](CC(N)=O)C(=O)N[C@@H](Cc1c[nH]c2ccccc12)C(=O)N[C@@H](CC(C)C)C(=O)N[C@H](C(=O)N[C@@H](CCCNC(=N)N)C(=O)N[C@@H](CCC(N)=O)C(=O)N[C@@H](CCCNC(=N)N)C(=O)N[C@@H](Cc1ccc(O)cc1)C(N)=O)[C@@H](C)O)C(C)C [Compound 198, N{alpha-4}-(3-methylbutanoyl)-N{epsilon-7}-(6-[(4S)-4-carboxy-4-(17-carboxyheptadecanamido)butanamido]hexanoyl)-[4A,6A,7K,9E,10A,13E,17I,18Q,22V,28Y,30W,31L]-hPYY(4-36)]	1.38 nM	>10.0 mg/mL	>10.0 mg/mL
